This note sets out measurements from patent US20010056068A1, “METHOD OF TREATMENT AND PREVENTION OF NITRIC OXIDE DEFICIENCY-RELATED DISORDERS WITH CITRULLINE AND CITRULLINE DERIVATIVES” (priority 1998, published 2001).

Data set [1] has as its system normal and L-NAME-treated female rats. Briefly: Systolic blood pressure by telemetry after oral citrulline in normal and L-NAME-treated female rats. It counts as in vivo, rat. To be noted: for decrease in blood pressure: 70 mg/rat at 24 h and 140 mg/rat at 48 h after pump insertion. As to the method:
(§1) FIG. 1: The effect of a single administration of citrulline on the systolic blood pressure in normal and L-NAME-treated female rats. Intact female rats chronically instrumented with telemetric transducers allowing continuous monitoring of blood pressure were subcutaneusly implanted with osmotic mini-pumps releasing 50 mg/day L-NAME or 0.9% saline (controls). 24 hours after the pump insertion, the animals received 70 mg/rat citrulline orally per gavage. The systolic blood pressure was monitored for an additional 24 hours following citrulline treatment. N=5/group.
(§2) FIG. 2: The effect of multiple administration of citrulline on the systolic blood pressure in normal and L-NAME-treated female rats. Intact female rats chronically instrumented with telemetric transducers allowing continuous monitoring of blood pressure were subcutaneously implanted with osmotic mini-pumps releasing 50 mg/day L-NAME or vehicle (controls). 24 and 48 hours after the pump insertion, the animals received 70 and 140 mg/rat citrulline orally per gavage. The systolic blood pressure was monitored for an additional 24 hours following the second citrulline treatment. N=5/group
However, the systolic BP started to raise 4 hours after citrulline treatment.
In the experiment which results are presented in FIG. 2, the animals were treated twice with citrulline, i.e. 24 hours (70 mg/rat) and 48 after the start of L-NAME infusion. Similarly to FIG. 1, the first administration of citrulline was performed when the animals became hypertensive following L-NAME infusion.

The test system is the same in data set [2]. The data set is described as follows: Heart rate by telemetry after oral citrulline in normal and L-NAME-treated female rats. It counts as in vivo, rat. As to the method: FIG. 3: The effect of a single administration of citrulline on the heart rate in normal and L-NAME-treated female rats. Intact female rats chronically instrumented with telemetric transducers allowing continuous monitoring of heart rate were subcutaneously implanted with osmotic mini-pumps releasing 50 mg/day L-NAME or 0.9% saline (controls). 24 hours after the pump insertion, the animals received 70 mg/rat citrulline orally per gavage. The heart rate was monitored for an additional 24 hours following citrulline treatment. N=5/group
At this time there was also a pronounced increase in heart rate in the L-NAME-treated rats (to 400-450 times/minute). Following a single oral citrulline (70 mg) administration, there was a rapid and very pronounced (p<0.05) decrease in heart rate to approximately 100 times/minute reaching a plateau already 1 hour after treatment. […] The effects of citrulline sustained for 24 hours in both treatment and control groups of citrulline treatment.

The test system is the same in data set [3]. The data set is described as follows: Observation of side-effects of citrulline administration in the rat experiments. To be noted: oral 70 or 140 mg/rat, any experiment. It counts as in vivo. As to the method: as §1, §2
FIG. 3: The effect of a single administration of citrulline on the heart rate in normal and L-NAME-treated female rats. […] The heart rate was monitored for an additional 24 hours following citrulline treatment. […]

Where [4] appears, read: female rats, 50 mg/day L-NAME by subcutaneous osmotic mini-pump, before citrulline.
Where [5] appears, read: control female rats infused with vehicle, single oral 70 mg citrulline.

For `COC(=O)[C@@H](N)CCCNC(=N)N[N+](=O)[O-]` [L-NAME, N^G-nitro-L-arginine methyl ester, reference compound], the “blood pressure effect 24 hours after start of L-NAME infusion” value in data set [1] (setting [4]) is “substantial hypertension”. In addition, the “heart rate 24 hours after start of L-NAME infusion” value in data set [2] (setting [4]) was 400-450 times/minute.
`NC(=O)NCCC[C@H](N)C(=O)O` [citrulline]: the “effect of second dose of 140 mg on blood pressure compared with first dose of 70 mg” value in data set [1] (L-NAME- and vehicle-treated female rats, multiple oral administration) is “slightly more effective”. The “change in systolic blood pressure” value in data set [1] (L-NAME-treated (50 mg/day, osmotic mini-pump) female rats, single oral 70 mg citrulline 24 h after start of L-NAME infusion, N=5/group) was “rapid and significant (p<0.05) decrease in systolic blood pressure”. Also, the “decrease in blood pressure” value in data set [1] (L-NAME-treated female rats, multiple oral administration) was 30-40%; in data set [1] (vehicle-treated female rats, multiple oral administration), 30-40%. The “change in blood pressure” value in data set [1] (setting [5]) is on record as “reduced blood pressure”. For the same molecule, the “time after treatment at which systolic BP started to rise” value in data set [1] (setting [5]) worked out at 4 h. The “hypertension and increase in heart rate induced by NOS inhibition with L-NAME” value in data set [1] (female rats, citrulline administered orally, overall conclusion) is “partially attenuated”. Besides, the “time to plateau of heart rate decrease after treatment” value in data set [2] (L-NAME-treated female rats, single oral 70 mg citrulline) is 1 h. Besides, the “heart rate after treatment” value in data set [2] (L-NAME-treated female rats, single oral 70 mg citrulline 24 h after start of L-NAME infusion, p<0.05) was “approximately 100 times/minute”. Also, the “duration of the effects on heart rate” value in data set [2] (both treatment (L-NAME) and control groups, single oral 70 mg citrulline) is 24 h. Further, the “change in heart rate” value in data set [2] (setting [5]) is “reduced heart rate”. Besides, the “side-effects of citrulline administration” value in data set [3] was “No side-effects”.
